Consider 5 molecules from patent USRE44704E1, “Compositions and methods for treating cancer using immunoconjugates and chemotherapeutic agents” (Immunogen Inc., priority 1999, dated 2014).

Read-outs that look alike come from different tables or passages of the source.

The subject of experiment [1] is human colon cancer HT-29 cells. Nature of the experiment: Anti-tumor effect of C242-DM1, CPT-11 and their combination in established subcutaneous HT-29 xenograft model (Example 7, FIG. 10). The class given is in vivo. The conditions noted are these: HT-29 s.c. xenografts, SCID mice, tumors about 80 mm^3 at start; CPT-11 50 mg/kg×2 q3d i.v.; C242-DM1 DM1 dose 75 μg/kg×5 qd i.v. The procedure:
(§1) A control group of animals received phosphate-buffered saline (PBS) using the same schedule as the animals in group 2. Tumor growth was monitored by measuring tumor size twice per week. Tumor size was calculated using the formula: length×width×height×½.

Experiment [2] concerns human small cell lung cancer SW-2 cells. Nature of the experiment: Anti-tumor effect of huN901-DM1, docetaxel and their combination in established subcutaneous SW-2 xenograft model (Example 4, FIG. 7). The class given is in vivo. The following applies: SW-2 s.c. xenografts, SCID mice, tumors about 100 mm^3 at start; docetaxel 5 mg/kg×5 q2d i.v.; huN901-DM1 DM1 dose 75 μg/kg×5 qd i.v. Here is the method:
Tumor size was calculated with the formula: length×width×height×½.
In 3 out of 6 animals in this treatment group, the tumor was eradicated—resulting in cures lasting greater than 200 days. In the remaining 3 animals in this group, there was a tumor growth delay of 52 days, which is 24 days longer than the calculated additive effect.

Experiment [3] deals with NCI N417 cells (small cell lung cancer xenografts). The class given is in vivo. The following applies: NCI N417 s.c. xenografts, SCID mice, tumors approx. 100 mm^3 at start; huN901-DM1 DM1 dose 75 μg/kg/d×5 i.v.; paclitaxel 10 mg/kg/d×5 i.p. Here is the method:
In this experiment, a low, non-curative dose of huN901-DM1 was used with an optimal does of paclitaxel (Sigma Chemical Co., St. Louis, Mo.). SCID mice (7 animals per group) were inoculated subcutaneously with NCI N417 cells (8×10^6 cells/animal). After the tumors were well-established (average tumor size was approximately 100 mm^3), one group of animals was treated with huN901-DM1 at a DM1 dose of 75 μg/kg/d×5, administered i.v. everyday. A second group of animals was treated with paclitaxel at a dose of 10 mg/kg/d×5, administered by i.p. everyday. […] A fourth, control group of animals was left untreated. Tumor size was measured as described by Liu et al, Proc. Natl. Acad. Sci., 93:8618-8623 (1996). Animals were also monitored for weight loss as an indicator of signs of toxicity.
In the control group of animals, the tumors grew rapidly to a size of about 900 mm^3 by Day 28 post-tumor inoculation. In animals treated with either huN901-DM1 or paclitaxel, there was a modest anti-tumor effect with a tumor growth delay of 4 days in each case.

The subject of experiment [4] is human lung adenocarcinoma NCI-H441 cells. The conditions noted are these: NCI-H441 s.c. xenografts, SCID mice, tumors about 125 mm^3 at start; paclitaxel 15 mg/kg×5 q2d i.p. The procedure: as §1
In experiment [5] the test system is human small cell lung cancer SW-2 cells. Nature of the experiment: Anti-tumor effect of huN901-DM1, topotecan and their combination in established subcutaneous SW-2 xenograft model (Example 5, FIG. 8). The class given is in vivo. The following applies: SCID mice. Here is the method: FIG. 8 is a graph comparing the anti-tumor activity of (i) a control, (ii) huN901-DM1, (iii) topotecan, and (iv) the combination of huN901-DM1 and topotecan, against small cell lung cancer xenografts in SCID mice.
The anti-tumor effect of a combination of a low dose of huN901-DM1 and topotecan (available as HYCAMTIN® from SmithKline Beecham Pharmaceuticals), one of the approved drugs for the treatment of small cell lung cancer (SCLC) in humans, was evaluated in an established subcutaneous xenograft model of SCLC. SCID mice (24 animals) were inoculated with human small cell lung cancer SW-2 cells (8×10^6 cells/animal) injected subcutaneously into the right flank of the mice. When the tumors reached about 80 mm^3 in size, the mice were randomly divided into four groups (6 animals per group). The first group of mice was treated with topotecan (1.4 mg/kg×5, qd) administered i.v. A second group of animals was treated with huN901-DM1 (DM1 dose of 100 μg/kg×5, qd) administered i.v. The third group of mice received a combination of topotecan and huN901-DM1, using the same doses and schedules as in groups 1 and 2. A control group of animals received phosphate-buffered saline (PBS) using the same schedule as the animals in group 2. Tumor growth was monitored by measuring tumor size twice per week. Tumor size was calculated using the formula: length×width×height×½.

Experiment [6] has as its system NCI N417 cells (small cell lung cancer xenografts). Nature of the experiment: Anti-tumor activity of huN901-DM1, cisplatin plus etoposide, and the triple combination against established NCI N417 xenografts (Example 3, FIG. 6). The class given is in vivo. The conditions noted are these: NCI N417 s.c. xenografts, SCID mice; huN901-DM1 DM1 dose 75 μg/kg/d×5 i.v.; cisplatin 2 mg/kg/d×3 i.v. every other day; etoposide 8 mg/kg/d×3 every other day. The procedure:
In this experiment, a low, non-curative dose of huN901-DM1 was used with an optimal dose of cisplatin (Sigma Chemical Co., St. Louis, Mo.) and etoposide (Sigma Chemical Co., St. Louis, Mo.). SCID mice (7 animals per group) were inoculated subcutaneously with NCI N417 cells (8×10^6 cells/animal). After the tumors were well-established (average tumor size was approximately 100 mm^3), one group of animals was treated with huN901-DM1 at a DM1 dose of 75 μg/kg/d×5, administered i.v. everyday. A second group of animals was treated with cisplatin (at a dose of 2 mg/kg/d×3, administered by i.v. ever other day) and etoposide (at a dose of 8 mg/kg/d×3, administered every other day). A third group of animals was treated with huN901-DM1, cisplatin and etoposide using the same dose and schedule used for a the individual agents. A fourth, control group of animals was left untreated. Tumor size was measured as described by Liu et al, Proc. Natl. Acad. Sci., 93:8618-8623 (1996). Animals were also monitored for weight loss as an indicator of signs of toxicity.
In the control group of animals, the tumors grew rapidly to a size of about 900 mm^3 by Day 28 post-tumor inoculation. In animals treated with either huN901-DM1 or cisplatin and etoposide, there was a modest anti-tumor effect with a tumor growth delay of 4 days in each case.

Turning to `CCc1c2c(nc3ccc(OC(=O)N4CCC(N5CCCCC5)CC4)cc13)-c1cc3c(c(=O)n1C2)COC(=O)[C@]3(O)CC` [CPT-11, irinotecan], in experiment [1], the tumor growth delay is on record as 6 days.

Take `CC(=O)O[C@@]12CO[C@@H]1C[C@H](O)[C@@]1(C)C(=O)[C@H](O)C3=C(C)[C@@H](OC(=O)[C@H](O)[C@@H](NC(=O)OC(C)(C)C)c4ccccc4)C[C@@](O)([C@@H](OC(=O)c4ccccc4)[C@H]21)C3(C)C` [docetaxel]: the tumor growth delay in experiment [2] is on record as 8 days.

As to `CC(=O)O[C@H]1C(=O)[C@@]2(C)[C@H]([C@H](OC(=O)c3ccccc3)[C@]3(O)C[C@H](OC(=O)[C@H](O)[C@@H](NC(=O)c4ccccc4)c4ccccc4)C(C)=C1C3(C)C)[C@]1(OC(C)=O)CO[C@@H]1C[C@@H]2O` [paclitaxel], the tumor growth delay in experiment [3] and in experiment [4] was 4 days each time.

Turning to `CC[C@@]1(O)C(=O)OCc2c1cc1n(c2=O)Cc2cc3c(CN(C)C)c(O)ccc3nc2-1` [topotecan], the tumor growth delay in experiment [5] (SW-2 s.c. xenografts, tumors about 80 mm^3 at start, topotecan 1.4 mg/kg×5 qd i.v.) stood at 12 days.

B1: huN901-DM1: maytansinoid DM1 conjugated via SPP disulfide link to humanized monoclonal antibody N901 (binds CD56); 3.9 DM1 molecules per antibody (conjugate, chains of the INN, looked up)
VH: QVQLVESGGGVVQPGRSLRLSCAASGFTFSSFGMHWVRQAPGKGLEWVAYISSGSFTIYYADSVKGRFTISRDNSKNTLYLQMNSLRAEDTAVYYCARMRKGYAMDYWGQGTLVTVSS
VL: DVVMTQSPLSLPVTLGQPASISCRSSQIIIHSDGNTYLEWFQQRPGQSPRRLIYKVSNRFSGVPDRFSGSGSGTDFTLKISRVEAEDVGVYYCFQGSHVPHTFGQGTKVEIK
modifications: DM1 via SPP disulfide linker
notes: 3.9 DM1 molecules per antibody
Consider B1, for which the figures for the tumor growth delay in experiment [2], in experiment [3] and in experiment [6] were 20 days, 4 days and 4 days, respectively. Besides, the “animals with complete tumor regression” value in experiment [5] (SW-2 xenografts, 6 animals per group, topotecan 1.4 mg/kg×5 qd i.v., huN901-DM1 100 μg/kg×5 qd i.v.) amounted to 3 animals. Moreover, in experiment [5] (SW-2 xenografts, huN901-DM1 DM1 dose 100 μg/kg×5 qd i.v., the 3 animals without complete regression), the “tumor-growth delay in 3 out of 6 animals” value came out at 34 days.
